Assay [1] addresses T1, SRPK2 (Homo sapiens, UniProt P78362).
T1 construct: purchased Millipore
The experiment in a line: In vitro kinase assay (ADP-Glo), SRPK2. The settings on record: 5 µM ATP. Format: biochemical. The procedure: (§1) The ATP concentration for each assay was adjusted to the Km for each kinase. Kinase assays for SRPK1–3 and CLK1 were performed using the ADP-Glo™ assay (Promega, Madison, WI). The kinase buffer contained 25 mM HEPES (pH 7.5), 10 mM magnesium acetate, 1 mM DTT, 0.01% BSA, and 0.01% Tween-20. The reaction mixtures contained 50 ng/mL SRPK1, 100 ng/mL SRPK2 or SRPK3, or 300 ng/mL CLK1 and 3 μM substrate peptide [GRSRSRSRSRSRSRSR] (Thermo Scientific). After incubating the enzyme, peptide, and compounds for 10 min, kinase reactions were initiated by adding ATP to a final concentration of 5 µM, followed by incubation for 30 min (15 min for SRPK1). The kinase reactions were terminated by adding ADP-Glo™ reagent (Promega). ADP was detected using a kinase detection reagent (Promega). The kinase activity of CLK2 was measured using the LANCE® Ultra assay (Perkin-Elmer, Waltham, MA) with ADP-Glo assay buffer. The reaction mixtures contained 100 ng/mL CLK2 and 50 nM ULight™-myelin basic protein (MBP) peptide (Perkin-Elmer). After incubating the enzyme, peptide, and compounds for 5 min, kinase reactions were initiated by adding ATP to a final concentration of 20 μM, followed by incubation for 30 min. The enzyme reactions were terminated by adding 30 mM EDTA, and phosphorylated ULight-MBP peptides were detected using a europium-labeled anti-phospho-MBP antibody diluted with detection buffer (Perkin-Elmer). The plates were read using an EnVision 2102 multilabel reader (Perkin-Elmer). We defined the absorbance of the reaction without enzyme as 100% inhibitory activity and that of the complete reaction mixture as 0% inhibitory activity. The IC50 values were estimated using the “Sigmoidal dose-response (variable slope)” equation in GraphPad Prism 5 software (GraphPad Software, San Diego, CA), with the maximum and minimum of the curve constrained to 100 and 0, respectively.
For orientation: ADP-Glo turns the ADP formed in a reaction into a luminescent signal.

Assay [2] concerns S6K pre-mRNA splicing in MDA-MB-468 cells. The experiment in a line: S6K pre-mRNA splicing alteration (quantitative RT-PCR), MDA-MB-468. Format: cell-based, human. The following applies: for Rc0.1: MDA-MB-468, concentration at which ratio of copy number of S6K exons 6–8 to S6K exons 6–7 is 0.1; for concentration at which expression level of the alternatively spliced S6K mRNAs was highest: MDA-MB-468, 6 h, S6K exons 6–8 (exon 7 skipped). An excerpt: To examine whether inhibition of a particular CLK and/or SRPK contributed to the alternative splicing of S6K pre-mRNA, we used an additional series of compounds with the same scaffold as Cpd-1, Cpd-2, and Cpd-3, but different selectivity. First, we examined the correlation between the enzymatic activity and the level of splicing alterations of S6K pre-mRNA for the individual compounds. We used the exon 7-skipped type of S6K variant to calibrate Rc0.1 values, i.e., the concentrations that induced 10% of the copy number of an alternative isoform compared with that of the canonical isoform. The inhibition of CLK1 and CLK2 activities was correlated with the splicing alteration activities (Rc0.1) (R^2 = 0.3353 and 0.4255, respectively). In contrast, there was no correlation between the activities of SRPKs and the Rc0.1 values (R^2 < 0.0468) (Fig. 3A). Next, we compared the levels of splicing alteration and growth inhibition of the compounds. […] Similar correlations between Rc0.1 and GI50 values were also obtained in seven different cancer cell lines after treatment with Cpd-2 or Cpd-3 (Table 2).
Total RNA was extracted using an RNeasy Miniprep Kit (Qiagen, Valencia, CA) in accordance with the manufacturer’s instructions. Reverse transcription was performed using a TaqMan Reverse Transcription Reagents Kit (Applied Biosystems, Carlsbad, CA). The PCR conditions were as follows: one cycle of 5 min at 95°C; 35 cycles of 30 s at 94°C, 30 s at 60°C, and 30 s at 72°C; and one cycle of 10 min at 72°C. The PCR products were separated in 2% agarose gels. Real-time PCR was performed using a TaqMan MGB probe (Applied Biosystems), and the amount of FAM fluorescence was measured as a function of the PCR cycle number (CT) using an ABI 7900 Real-time PCR System (Applied Biosystems). The expression level of each mRNA was normalized by that of GAPDH mRNA.

Assay [3] has as its system SW620 cells. The assay can be described thus: Cell viability assay, SW620. The class given is cell-based. The settings on record: Homo sapiens, SW-620; SW620 colorectal cancer.
The subject of assay [4] is NCI-H23 cells. The assay can be described thus: Cell viability assay, NCI-H23. Format: cell-based. The following applies: Homo sapiens; NCI-H23 non-small cell lung cancer.
Assay [5] deals with A549 cells. The experiment in a line: Cell viability assay, A549. The class given is cell-based. The settings on record: Homo sapiens; A549 non-small cell lung cancer.
The target of assay [6] is T2, CLK2 (Homo sapiens, UniProt P49760).
T2 construct: purchased Life Technologies
The assay can be described thus: In vitro kinase assay (LANCE Ultra), CLK2. The class given is biochemical. The settings on record: for IC50: 20 µM ATP; for activity for CLK2 relative to Cpd-1: stronger than Cpd-1. The procedure: as §1

Assay [7] has as its system HCT-116 cells. The assay can be described thus: Cell viability assay, HCT-116. The class given is cell-based. The following applies: Homo sapiens; HCT-116 colorectal cancer.
Assay [8] concerns the target T3, CLK1 (Homo sapiens, UniProt P49759).
T3 construct: purchased Life Technologies
The experiment in a line: In vitro kinase assay (ADP-Glo), CLK1. The class given is biochemical. The following applies: for IC50: 5 µM ATP; for activity for CLK1 relative to Cpd-1: stronger than Cpd-1. The procedure: as §1

The target in assay [9] is T4, SRPK1 (Homo sapiens, UniProt Q96SB4).
T4 construct: Full-length human recombinant SRPK1 with a FLAG tag linked to the N-terminus (FLAG-hSRPK1); FLAG (N); made in house; host or cells: Sf9 cells (baculovirus, Bac-to-Bac)
The experiment in a line: In vitro kinase assay (ADP-Glo), SRPK1. Format: biochemical. The settings on record: 5 µM ATP. The procedure:
Full-length human recombinant SRPK1 with a FLAG tag linked to the N-terminus (FLAG-hSRPK1) was prepared using a baculovirus expression system. The recombinant baculovirus used to express FLAG-hSRPK1 was constructed according to the protocol provided with the Bac-to-Bac Baculovirus Expression System (Invitrogen, Carlsbad, CA). Sf9 cells were infected with the amplified recombinant baculovirus, cultured at 27°C for 3 days, harvested, and stored at −80°C. The frozen cells were suspended in lysis buffer [50 mM Tris-HCl pH 7.5, 150 mM NaCl, 10% (w/v) glycerol, 1 mM DTT, and complete protease inhibitor cocktail (Roche, Basel, Switzerland)], sonicated for 1 min, and centrifuged at 15,000 × g for 30 min. The soluble fraction was applied to an anti-FLAG M2 affinity gel (Sigma-Aldrich, St. Louis, MO), and FLAG-hSRPK1 was eluted with elution buffer [50 mM Tris-HCl pH 7.5, 10% (w/v) glycerol, 1 mM DTT, and 0.1 mg/mL FLAG peptide]. FLAG-hSRPK1 was further purified by anion exchange chromatography (MonoQ 5/50 GL; GE Healthcare, Piscataway, NJ) and gel filtration chromatography (HiLoad 26/60 Superdex 200 pg; GE Healthcare). Protein concentration was measured using BCA protein assay reagents (Thermo Scientific, Pittsburgh, PA). CLK1 and CLK2 were purchased from Life Technologies (Carlsbad, CA) and SRPK2 and SRPK3 were obtained from Millipore (Billerica, MA).
The ATP concentration for each assay was adjusted to the Km for each kinase. […] ADP was detected using a kinase detection reagent (Promega). The kinase activity of CLK2 was measured using the LANCE® Ultra assay (Perkin-Elmer, Waltham, MA) with ADP-Glo assay buffer. […] The enzyme reactions were terminated by adding 30 mM EDTA, and phosphorylated ULight-MBP peptides were detected using a europium-labeled anti-phospho-MBP antibody diluted with detection buffer (Perkin-Elmer). The plates were read using an EnVision 2102 multilabel reader (Perkin-Elmer). We defined the absorbance of the reaction without enzyme as 100% inhibitory activity and that of the complete reaction mixture as 0% inhibitory activity. […]

Consider 3 compounds from paper PMC4291223, “Inhibitors of CLK Protein Kinases Suppress Cell Growth and Induce Apoptosis by Modulating Pre-mRNA Splicing” (PLoS ONE, 2015).

SMILES strings stand for the structures.

T4 sequence (Q96SB4 whole entry): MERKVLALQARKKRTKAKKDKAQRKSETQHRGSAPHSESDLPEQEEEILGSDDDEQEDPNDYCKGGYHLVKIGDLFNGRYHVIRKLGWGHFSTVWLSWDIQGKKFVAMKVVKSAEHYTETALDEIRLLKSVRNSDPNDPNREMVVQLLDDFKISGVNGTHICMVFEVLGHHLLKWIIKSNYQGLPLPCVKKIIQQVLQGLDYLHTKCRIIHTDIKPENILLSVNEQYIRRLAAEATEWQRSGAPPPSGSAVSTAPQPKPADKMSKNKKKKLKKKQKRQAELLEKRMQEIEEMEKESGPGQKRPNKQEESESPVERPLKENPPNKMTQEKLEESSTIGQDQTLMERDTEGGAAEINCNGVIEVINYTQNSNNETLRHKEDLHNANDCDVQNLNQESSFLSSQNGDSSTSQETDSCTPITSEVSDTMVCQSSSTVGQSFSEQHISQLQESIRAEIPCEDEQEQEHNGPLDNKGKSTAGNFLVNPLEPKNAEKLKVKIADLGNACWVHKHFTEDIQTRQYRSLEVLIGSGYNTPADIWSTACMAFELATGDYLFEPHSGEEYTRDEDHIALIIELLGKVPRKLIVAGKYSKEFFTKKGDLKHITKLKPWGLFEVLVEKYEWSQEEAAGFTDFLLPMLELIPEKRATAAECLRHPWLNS
T1 sequence (P78362 whole entry): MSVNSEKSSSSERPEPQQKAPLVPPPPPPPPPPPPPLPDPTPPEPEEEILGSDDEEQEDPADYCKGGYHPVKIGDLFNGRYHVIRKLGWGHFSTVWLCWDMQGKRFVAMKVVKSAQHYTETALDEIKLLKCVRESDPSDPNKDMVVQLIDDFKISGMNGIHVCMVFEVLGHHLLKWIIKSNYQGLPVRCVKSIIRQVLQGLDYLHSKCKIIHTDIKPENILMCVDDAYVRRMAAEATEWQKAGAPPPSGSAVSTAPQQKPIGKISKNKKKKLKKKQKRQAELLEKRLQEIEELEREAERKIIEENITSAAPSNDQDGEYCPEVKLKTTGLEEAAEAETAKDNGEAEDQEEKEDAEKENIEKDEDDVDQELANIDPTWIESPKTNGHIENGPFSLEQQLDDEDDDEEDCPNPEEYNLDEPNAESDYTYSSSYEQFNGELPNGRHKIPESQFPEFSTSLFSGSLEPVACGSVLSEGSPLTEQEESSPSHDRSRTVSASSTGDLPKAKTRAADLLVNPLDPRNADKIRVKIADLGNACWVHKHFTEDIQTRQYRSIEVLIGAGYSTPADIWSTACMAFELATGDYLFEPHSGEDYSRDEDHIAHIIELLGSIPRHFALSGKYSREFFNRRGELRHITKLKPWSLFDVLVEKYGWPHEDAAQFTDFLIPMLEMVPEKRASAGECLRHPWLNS
T2 sequence (P49760 whole entry): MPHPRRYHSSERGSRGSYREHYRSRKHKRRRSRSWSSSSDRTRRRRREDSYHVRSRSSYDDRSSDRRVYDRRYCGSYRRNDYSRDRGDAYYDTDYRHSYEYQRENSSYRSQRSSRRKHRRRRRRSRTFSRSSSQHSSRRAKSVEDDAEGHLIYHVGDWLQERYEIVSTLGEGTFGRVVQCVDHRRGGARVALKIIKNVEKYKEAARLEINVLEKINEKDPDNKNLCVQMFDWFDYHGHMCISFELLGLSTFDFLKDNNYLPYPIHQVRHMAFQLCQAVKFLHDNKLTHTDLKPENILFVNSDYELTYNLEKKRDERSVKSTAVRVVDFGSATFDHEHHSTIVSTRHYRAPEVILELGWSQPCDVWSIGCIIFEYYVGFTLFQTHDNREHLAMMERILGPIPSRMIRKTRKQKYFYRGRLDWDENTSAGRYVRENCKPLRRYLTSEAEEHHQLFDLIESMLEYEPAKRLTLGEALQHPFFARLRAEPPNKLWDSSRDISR
T3 sequence (P49759 whole entry): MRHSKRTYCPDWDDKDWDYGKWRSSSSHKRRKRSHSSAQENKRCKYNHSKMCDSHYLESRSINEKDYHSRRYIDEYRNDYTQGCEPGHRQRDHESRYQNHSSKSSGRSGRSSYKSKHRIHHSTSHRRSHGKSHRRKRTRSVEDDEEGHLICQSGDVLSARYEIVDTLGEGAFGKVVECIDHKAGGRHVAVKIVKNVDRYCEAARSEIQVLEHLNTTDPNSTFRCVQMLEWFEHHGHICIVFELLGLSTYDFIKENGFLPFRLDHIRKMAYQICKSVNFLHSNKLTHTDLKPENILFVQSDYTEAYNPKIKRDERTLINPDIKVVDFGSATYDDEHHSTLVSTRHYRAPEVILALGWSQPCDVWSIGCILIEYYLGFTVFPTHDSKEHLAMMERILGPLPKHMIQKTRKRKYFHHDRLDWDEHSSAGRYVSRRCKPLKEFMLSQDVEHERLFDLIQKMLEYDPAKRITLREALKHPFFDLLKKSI

The IC50 is the concentration that inhibits the measured activity by half. High values mean lower potency, low ones higher potency. For orientation: GI50 means the concentration giving 50% growth inhibition. Low readings indicate more potent growth inhibition, high ones less potent growth inhibition. For `CC(C)(CCc1nnn[nH]1)c1ccc(C(=O)Nc2cn3cc(C(F)(F)F)ccc3n2)cc1` [Cpd-1, 4-(2-methyl-4-(1H-tetrazol-5-yl)butan-2-yl)-N-(6-(trifluoromethyl)imidazo[1,2-a]pyridin-2-yl)benzamide], the IC50 in assay [1] came out at 75 nM; in assay [6] it was 45 nM; in assay [8], 16 nM; in [9] it was 61 nM. Further, the Rc0.1 in assay [2] was 8.6 µM. In addition, the GI50 is 41800 nM in assay [3], 32000 nM in [4], 102000 nM in assay [5] and 70200 nM in assay [7].
In the case of `CC(C)(C)c1ccc(C(=O)Nc2cn3cc(-c4cn[nH]c4)ccc3n2)cn1` [Cpd-2, 6-tert-butyl-N-(6-(1H-pyrazol-4-yl)imidazo[1,2-a]pyridin-2-yl)nicotinamide], the IC50 in assay [1] turned out to be 310 nM; in [6] it was 2.4 nM; in [8], 1.1 nM; in [9], 200 nM. For the same compound, the “concentration at which expression level of the alternatively spliced S6K mRNAs was highest” value in assay [2] fell in the range of 1.1 to 3.3 µM. In assay [2], the Rc0.1 was determined as 0.3 µM. Also, the GI50 stood at 2000 nM in assay [3], 1400 nM in assay [4], 1900 nM in [5] and 2200 nM in assay [7]. In assay [6], the “activity for CLK2 relative to Cpd-1” value came to 10 fold. Moreover, the “activity for CLK1 relative to Cpd-1” value in assay [8] turned out to be 10 fold.
For the compound `CC(C)(CO)c1ccc(C(=O)Nc2cn3cc(-c4cn[nH]c4)ccc3n2)cc1` [Cpd-3, 4-(1-hydroxy-2-methylpropan-2-yl)-N-(6-(1H-pyrazol-4-yl)imidazo[1,2-a]pyridin-2-yl)benzamide], the concentration for half-maximal inhibition (IC50) in assay [1] was determined as 260 nM; in [6] it was 2.1 nM; in assay [8], 1.1 nM; in [9], 130 nM. For the same compound, in assay [2], the “concentration at which expression level of the alternatively spliced S6K mRNAs was highest” value is 1.1 to 3.3 µM. Also, the Rc0.1 in assay [2] was found to be 0.5 µM. The GI50 in [3] worked out at 2900 nM; in assay [4], 2200 nM; in assay [5], 2600 nM; in assay [7] it was 2500 nM. For the same compound, the “activity for CLK2 relative to Cpd-1” value in [6] is listed as 10 fold. The “activity for CLK1 relative to Cpd-1” value in assay [8] came out at 10 fold.
